Data taken from PMC8480782, “Efficient Dimerization Disruption of Leishmania infantum Trypanothione Reductase by Triazole-phenyl-thiazoles” (Journal of Medicinal Chemistry, 2021).

Tests used:
[1] = Cytotoxicity in THP-1 monocyte-derived macrophages (LDH activity); format: cell-based, human; conditions: human; 75 μM (maximum concentration assayed); read-out: Cell viability of amastigote-infected THP-1 monocyte-derived macrophages at 75 μM
Summary of the method: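 PMA-differentiated THP-1 macrophages, infected with GFP-expressing amastigotes, were treated 72 h at 37 °C in RPMI with 10% horse serum. After SDS lysis, LDH activity measured via lactate/NAD+/NBT formazan formation at 570 nm (Tris pH 8.9, 37 °C); CC50 by nonlinear regression.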

[2] = molecular target: T1, human glutathione-disulfide reductase (hGR) (Homo sapiens, UniProt P00390); assay: hGR oxidoreductase activity, DTNB-coupled assay; format: biochemical
T1 construct: HIS (vector pRSETA); made in house
T1 sequence (P00390 44-522): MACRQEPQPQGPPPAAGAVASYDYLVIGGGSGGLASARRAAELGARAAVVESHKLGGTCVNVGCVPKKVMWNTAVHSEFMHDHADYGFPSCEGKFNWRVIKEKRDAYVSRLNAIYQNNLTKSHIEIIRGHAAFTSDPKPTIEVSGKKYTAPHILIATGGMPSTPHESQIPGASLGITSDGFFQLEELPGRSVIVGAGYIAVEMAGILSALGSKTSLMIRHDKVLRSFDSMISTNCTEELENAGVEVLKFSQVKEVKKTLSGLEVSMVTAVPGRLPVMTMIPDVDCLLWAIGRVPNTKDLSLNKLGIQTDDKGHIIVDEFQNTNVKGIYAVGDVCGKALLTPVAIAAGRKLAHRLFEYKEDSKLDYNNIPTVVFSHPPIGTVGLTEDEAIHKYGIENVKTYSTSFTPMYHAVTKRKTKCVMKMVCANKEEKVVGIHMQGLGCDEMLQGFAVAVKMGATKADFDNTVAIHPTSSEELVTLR
Description: The DNA coding sequences for Homo sapiens GR, T. brucei TryR, and T. congolense TryR were polymerase chain reaction (PCR)-amplified and cloned in the pRSETA plasmid. The DNA coding for hGR (transcript variant 1; NCBI Reference Sequence: NM_000637.5) was purchased from GeneScript. Genomic DNA from T. congolense parasites was kindly provided by Dr. Stefan Magez (University of Vrije, Brussels). Genomic DNA from the T. brucei S16 cell line was kindly provided by José M. Pérez-Victoria. Instituto de Parasitología y Biomedicina “López—Neyra” CSIC. HIS-tagged recombinant T. brucei and T. congolense TryRs (TbTryR and TcoTryR, respectively) were purified from E. coli as already explained for LiTryR.
hGR oxidoreductase activity was determined spectrophotometrically using a DTNB-coupled assay. Briefly, reactions were carried out at 37 °C in 250 μL of HEPES buffer (pH 7.5, 40 mM) containing EDTA (1 mM), NADP^+, (60 μM), DTNB (150 μM), oxidized glutathione (50 μM), NADPH (300 μM), glycerol (0.02%), DMSO (1.75%), and recombinant hGR (7 nM). […] TNB concentration was obtained by multiplying the absorbance values by 100 (50 μM TNB generates 0.5 arbitrary units of absorbance at 412 nm). All of the assays were conducted in at least three independent experiments. Data were analyzed using a nonlinear regression model with GraFit 6 software (Erithacus, Horley, Surrey, U.K.).

LiTryR = molecular target: T2, LiTryR (Leishmania infantum, UniProt A4HSF7); assay: Trypanothione-dependent NADPH oxidation assay (initial velocities); format: biochemical
T2 construct: HIS (N); made in house; host or cells: E. coli BL21 (DE3) Rossetta
Experimental: Despite the loss of activity observed during the reaction, dependency of the initial velocities (vi) on 19a and TS2 concentrations could be fitted to a model in which a rapid equilibrium is reached between the free enzyme and inhibitor (E + I) and the enzyme/inhibitor (EI) complex (Scheme 4). This analysis, based on vi values, was performed both in a DTNB-coupled assay and in a direct NADPH-oxidation assay (Figure S1 and Table S1).
Figure S1. Noncompetitive hyperbolic inhibition of Li TryR by 19a. Initial velocities were used for determination of the KKi value and assessment of the inhibition modality of 19a by two different methods: DTNB-coupled assay (absorbance readings at 412 nm) (A) and trypanothione- dependent NADPH oxidation assay (absorbance readings at 340 nm) (B).
Lineweaver–Burk plots of reciprocal initial velocities ( vi) versus reciprocals of four TS2 concentrations (12.5, 25, 50 and 100 μM) are shown. Experimental conditions in both experiments were similar to those described in the experimental section except that for the NADPH oxidation assay NADPH concentration was raised to 500 µM, NADP+ to 100 µM and 4.8 mM of oxidized glutathione was added. Data were f itted using the hyperbolic noncompetitive- mode equation described by Leskovac: […]
Table S1. Estimation of β and Ki in the noncompetitive hyperbolic inhibition mechanism by […]

T2 sequence (A4HSF7 1-491): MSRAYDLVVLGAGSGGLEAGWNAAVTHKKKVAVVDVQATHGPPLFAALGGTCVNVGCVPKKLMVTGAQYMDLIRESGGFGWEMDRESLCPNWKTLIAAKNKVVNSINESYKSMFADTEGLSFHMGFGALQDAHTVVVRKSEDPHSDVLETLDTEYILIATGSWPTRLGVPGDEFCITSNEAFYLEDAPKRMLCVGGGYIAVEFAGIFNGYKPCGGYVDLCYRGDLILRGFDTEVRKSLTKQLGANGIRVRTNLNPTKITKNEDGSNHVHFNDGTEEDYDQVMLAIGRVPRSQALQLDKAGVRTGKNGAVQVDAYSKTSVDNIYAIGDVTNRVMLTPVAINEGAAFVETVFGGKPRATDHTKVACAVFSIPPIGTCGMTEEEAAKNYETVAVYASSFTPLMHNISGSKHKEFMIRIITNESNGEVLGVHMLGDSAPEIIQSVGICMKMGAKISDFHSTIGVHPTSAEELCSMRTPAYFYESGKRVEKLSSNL

Compound	viability at 72 h, 75 µM [1] [%]	inhibitory activity against hGR [2]	also measured
NCCCCc1cn(-c2ccc(-c3nc(CCc4ccc(-c5ccccc5)cc4)cs3)c(OCCN3CCNC3=O)c2)nn1.O=C(O)C(F)(F)F [12c, 1-(2-(2-(4-(2-([1,1′-Biphenyl]-4-yl)ethyl)thiazol-2-yl)-5-(4-(4-ammoniumbutyl)-1H-1,2,3-triazol-1-yl)phenoxy)ethyl)imidazolidin-2-one 2,2,2-Trifluoroacetate]	100	–	–
NCCCc1cn(-c2ccc(-c3nc(CCc4ccc(-c5ccccc5)cc4)cs3)c(OCCN3CCNC3=O)c2)nn1.O=C(O)C(F)(F)F [12i]	100	–	–
NCCCCc1cn(-c2ccc(-c3nc(-c4ccccc4)cs3)c(OCCN3CCNC3=O)c2)nn1.O=C(O)C(F)(F)F [12n]	–	none of these compounds showed any inhibitory activity	–
NCCCCc1cn(-c2ccc(-c3nc(CCc4ccc5c(c4)CCCN5)cs3)c(OCCN3CCNC3=O)c2)nn1.O=C(O)C(F)(F)F.O=C(O)C(F)(F)F [12q]	67	–	–
NCCCCc1cn(-c2ccc(-c3nc(CCc4ccc5c(c4)CCO5)cs3)c(OCCN3CCNC3=O)c2)nn1.O=C(O)C(F)(F)F [12r]	–	none of these compounds showed any inhibitory activity	–
NCCCCc1cn(-c2ccc(-c3nc(-c4ccccc4)c(-c4ccccc4)s3)c(OCCN3CCNC3=O)c2)nn1.O=C(O)C(F)(F)F [19a, 1-(2-(5-(4-(4-Ammoniobutyl)-1H-1,2,3-triazol-1-yl)-2-(4,5-diphenylthiazol-2-yl)phenoxy)ethyl)imidazolidin-2-one 2,2,2-Trifluoroacetate]	–	none of these compounds showed any inhibitory activity	Ki (LiTryR): 2500 ± 700 nM; β, noncompetitive hyperbolic inhibition mechanism (LiTryR; NADPH oxidation assay, initial velocities, alpha value of 1): 0.2 ± 0.1
NCCCCc1cn(-c2ccc(-c3nc(-c4ccc(Oc5ccccc5)cc4)c(-c4ccccc4)s3)c(OCCN3CCNC3=O)c2)nn1.O=C(O)C(F)(F)F [19c, 1-(2-(5-(4-(4-Ammoniobutyl)-1H-1,2,3-triazol-1-yl)-2-(4-([4-phenyloxyphenyl]-1-yl)-5-phenylthiazol-2-yl)phenoxy)ethyl)imidazolidin-2-one 2,2,2-Trifluoroacetate]	63	–	–
